Data on three molecules can be found in patent publication US7256286B2, “Bryostatin analogues, synthetic methods and uses” (The Board of Trustees of the Leland Stanford Junior …, priority 1999, dated 2007).

Where two headings read alike, the source gives them in different places.

One test addresses T1, PKCδ-C1B (Mus musculus, UniProt P28867).
T1 construct: made in house
Put plainly: PKCδ-C1B assay. Format: binding. The protocol:
Phosphatidyl serine vesicles are prepared by the addition of phosphatidyl serine (10 mg/mL in chloroform, 0.4 mL) to a glass test tube followed by removal of the chloroform under a stream of nitrogen (5 min). […] The resulting solution is stored over ice. […] Stock solutions of compounds are diluted with absolute ethanol in glass in serial fashion. […] The tubes are incubated at 37° C. for 90 min. and then put on ice for 5 min. Each tube is then filtered separately through a pre-soaked filter disc. […] The filter is subsequently rinsed with cold 20 mM TRIS buffer (5 mL) dropwise. […] The filters are immediately counted in a scintillation counter (Beckman LS 6000SC). Counts per minute are averaged among three trials at each concentration.

In the next test the test system is P388 cell line. As to the kind of experiment: P388 murine lymphocytic leukemia cell assay. Format: cell-based. The note with it: Mus musculus, P388, 120 h; 5 days incubation, MTT; read-out: P388 Assay ED50. The procedure: Cells from a P388 cell line (CellGate, Inc., Sunnyvale, Calif.) are grown in RPMI 1640 cell medium containing fetal calf serum (10%), L-glutamine, penicillin, streptomycin and are split twice weekly. All compounds are first diluted with DMSO. Later serial dilutions are done with a phosphate buffer solution (HYQ DPBS modified phosphate buffered saline). All dilutions are done in glass vials and the final DMSO concentration is always below 0.5% by volume. Final two-fold dilutions are done in a 96 well plate using cell media so that each well contains 50 μL. All compounds are assayed in quadruplicate over 12 concentrations. Cell concentration is measured using a hemacytometer and the final cell concentration is adjusted to 1×10^4 cells/mL with cell medium. The resulting solution of cells (50 μL) is then added to each well and the plates are incubated for 5 days in a 37° C., 5% CO2, humidified incubator (Sanyo CO2 incubator). MTT solution (3-[4,5-dimethylthiazol-2-yl]-2,5-diphenyltetrazolium bromide, 10 μL) is then added to each well and the plates are re-incubated under identical conditions for 2 h. To each well is then added acidified isopropanol (150 μL of i-PrOH solution containing 0.05 N HCl) and mixed thoroughly. The plates are then scanned at 595 nm and the absorbances are read (Wallac Victor 1420 Multilabel Counter). The resulting data is then analyzed to determine an ED50 value using the Prism software package (GraphPad).

In test [1] the target is PKC purified from rat brain (mixture of PKC isoenzymes). Put plainly: Protein kinase C (isozyme mix) assay. Format: binding. Particulars: determined under identical conditions to the PKC isozyme mix assay; read-out: Kd of [H^3]-PDBu. The procedure:
In one approach, anticancer activity of compounds of the invention can be assessed using the protein kinase C assay detailed in Example 5. In this assay, Ki values are determined for analogues based on competition with radiolabeled phorbol 12,13-dibutyrate for binding to a mixture of PKC isoenzymes. PKC enzymes are implicated in a variety of cellular responses which may be involved in the activity of the bryostatins.
The following procedure was used, based on a modification of a previous procedure described by Tanaka et al. (1986). Filters (Whatman GF-B, 21 mm diam.) are soaked for 1 h in a solution containing deionized water (97 mL), and 10% polyethyleneamine (3 mL). A filtering buffer solution containing TRIS (1M, pH 7.4, 10 mL) and water (490 mL) is prepared and cooled on ice. […] Non-specific binding is measured in 1–3 tubes by the substitution of phorbol myristate acetate (PMA) (1 mM, 5 μL) and EtOH (15 μL) for the analogue/EtOH combination. […] The filters are immediately counted in a scintillation counter (Beckman LS 6000SC). […] The data is then plotted using a least squares fit algorithm with the Macintosh version of Kaleidagraph© (Abelbeck Software) and an IC50 (defined as the concentration of analogue required to displace half of the specific PDBU binding to PKC) is calculated. […]

For orientation: Ki means the dissociation constant of the complex between target and ligand, obtained from inhibition or displacement. What is called Kd is the free concentration of one partner at which half of the binding sites on the other are occupied at equilibrium, for simple one-to-one binding.

T1 sequence (P28867 231-281 limits assumed): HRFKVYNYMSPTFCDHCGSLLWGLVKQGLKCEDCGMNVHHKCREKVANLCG

Regarding `CCCCCCCC(=O)O[C@H]1/C(=C/C(=O)OC)CC2C[C@H]([C@@H](C)O)OC(=O)C[C@H](O)C[C@@H]3CCC[C@H](C[C@@H]4CCO[C@H](/C=C/C(C)(C)[C@]1(O)O2)O4)O3` [Formula 1998a, reference compound], the Ki on PKCδ-C1B was 5.1 nM. The EC50 in the test on P388 cell line was found to be 76 nM.
As for `COC(=O)/C=C1\C[C@H]2C[C@H]([C@@H](C)O)OC(=O)C[C@H](O)C[C@@H]3CCC[C@H](C[C@@H]4CCO[C@H](/C=C/C(C)(C)[C@](O)(O2)C1OC(C)=O)O4)O3` (stereo partly drawn) [Formula 702.2], the Ki at PKCδ-C1B (competition with tritiated phorbol 12,13-dibutyrate, read-out: PKCδ-C1B Assay Ki) was determined as 232 ± 11 nM. Also, the EC50 in the test with P388 cell line amounted to 181 nM.
For the molecule `CCCC(=O)O[C@@H]1[C@@H](C)[C@@]2(O)[C@@H](C=C(CO)C[C@]3(O)C(=O)C(C)=C[C@@H]23)[C@@H]2C(C)(C)[C@]12OC(=O)CCC` [Phorbol dibutyrate, phorbol 12,13-dibutyrate, reference compound], the Kd on PKCδ-C1B (Kd value printed in the Ki column) stood at 1.7 nM; in test [1], 1.55 nM.
